# Measurements reported in patent publication US12370167B2, “Blood-brain barrier permeability regulator and use thereof” (ZHEJIANG UNIVERSITY, priority 2019, dated 2025).
# Columns and labels:
# [1] = tested on: VEGF mRNA in U87 MG cells; test: Down-regulation of tumor cell VEGF mRNA expression, qt-PCR; format: cell-based; settings: paclitaxel 0.5 μg/mL, siRNA 100 nM, 48 hours, ΔΔCt method, n=3
# Protocol: FIG. 2: In vitro down-regulation of expression of U87 MG cell VEGF mRNA by the Angiopep-2-modified glycolipid nano-delivery system. 2 mL suspensions of well-grown U87 MG glioma cells were inoculated into a 6-well plate at a density of 4×10^5/well. After adherent growth of the cells, an Angiopep-2-modified glycolipid nano-delivery system was added, with paclitaxel at a concentration of 0.5 μg/mL and the siRNA at a concentration of 100 nM. The incubation was carried out for 48 hours. An untreated group was used as the blank control. The RNA in the cells was extracted with TRIzol. The relative expression level of tumor cell VEGF mRNA was measure with qt-PCR and calculated with a ΔΔCt method (n=3).
# The Angiopep-2-modified glycolipid nano-delivery system was obtained according to the procedures as described in the above sections of 1 and 2. 2.0 mL suspensions of well-grown U87 MG cells were inoculated into a 6-well plate at a density of 4×10^5/well, and were incubated at 37° C. and 5% CO2 until the cells adhere. The Angiopep-2-modified glycolipid nano-delivery system was added, with paclitaxel at a concentration of 0.5 μg/mL and the siRNA at a concentration of 100 nM. The incubation was carried out for 48 hours. The untreated cells were used as a blank control. Each of the group was repeated 3 times. The tumor cell VEGF expression level was measured with qt-PCR.
# [2] = tested on: U87 MG glioma cells; test: Cytotoxicity on U87 MG glioma cells, tetrazolium blue colorimetric method; format: cell-based; settings: paclitaxel 0.5 μg/mL, siRNA 100 nM, 48 hours
# Protocol: FIG. 1: In vitro cell inhibition rate against U87 MG glioma cells of the Angiopep-2-modified glycolipid nano-delivery system. 200 μL suspensions of well-grown U87 MG glioma cells were inoculated into a 96-well plate at a density of 5×10^3/well. After adherent growth of the cells, an Angiopep-2-modified glycolipid nano-delivery system was added, with paclitaxel at a concentration of 0.5 μg/mL and the siRNA at a concentration of 100 nM. The untreated cells were used as a blank control. The cell growth inhibition rate was measure with a tetrazolium blue colorimetric method (n=3).
# U87 MG glioma cells were used as the model cell to assess the growth inhibitory effect of the Angiopep-2-modified glycolipid nano-delivery system on tumor cells with a tetrazolium blue colorimetric method. The Angiopep-2-modified glycolipid nano-delivery system was obtained according to the procedures as described in the above sections of 1 and 2. 200 μL suspensions of well-grown U87 MG cells were inoculated into a 96-well plate at a density of 5×10^3/well, and were incubated at 37° C. and 5% CO2 until the cells adhere. The Angiopep-2-modified glycolipid nano-delivery system was added, with paclitaxel at a concentration of […] and the siRNA at a concentration of 100 nM. The untreated cells were used as a blank control. […] Absorbance at 570 nm was measured with a microplate reader. […]
Compound,expression level of VEGF mRNA (relative) [1],"inhibition at 0.5 µg/mL ([2]; Homo sapiens, U-87 MG, n=3, read-out: cell inhibition rate)",cell inhibition rate ([2]; n=3)
CC(=O)O[C@H]1C(=O)[C@@]2(C)[C@H]([C@H](OC(=O)c3ccccc3)[C@]3(O)C[C@H](OC(=O)[C@H](O)[C@@H](NC(=O)c4ccccc4)c4ccccc4)C(C)=C1C3(C)C)[C@]1(OC(C)=O)CO[C@@H]1C[C@@H]2O [paclitaxel],78.5%,18.7 ± 5.4%,–
"siRNA: siRNA, sense strand 5′-GUCUAUCAGCGCAGCUACUTT-3′ (SEQ ID NO: 1), antisense strand 5′-AGUAGCUGCGCUGAUAGACTT-3′ (SEQ ID NO: 2) (sense GUCUAUCAGCGCAGCUACUNN; antisense AGUAGCUGCGCUGAUAGACNN; listed as RNA, chemistry not given here)",92.9%,–,5.5±0.5%
